Reference: the kinase profiling compilation of Christmann-Franck et al. (2016)

Tests used:
Assay in all cases: KINOMEscan competition binding
CDKL1 (human) = CDKL1 (human) (UniProt Q00532); details: compound 1.0 µM
MAP2K2 (human) = MAP2K2 (human) (UniProt P36507); details: compound 1.0 µM
[1] = test system: PIK3CA (human), P42336 [E545K]; details: compound 1.0 µM
STK38 (human) = STK38 (human) (UniProt Q15208); details: compound 1.0 µM
LCK (human) = LCK (human) (UniProt P06239); details: compound 1.0 µM
MAP3K1 (human) = MAP3K1 (human) (UniProt Q13233); details: compound 1.0 µM
[2] = test system: FLT3 (human), P36888 [D835H]; details: compound 1.0 µM
ZAP70 (human) = ZAP70 (human) (UniProt P43403); details: compound 1.0 µM
[3] = test system: ABL1 (human), P00519 [M351T]; details: compound 1.0 µM
CDK11B (human) = CDK11B (human) (UniProt P21127); details: compound 1.0 µM
[4] = target: TYK2 JH2 pseudokinase (human) (UniProt P29597); details: compound 1.0 µM
NUAK2 (human) = NUAK2 (human) (UniProt Q9H093); details: compound 1.0 µM
MARK4 (human) = MARK4 (human) (UniProt Q96L34); details: compound 1.0 µM
CLK3 (human) = CLK3 (human) (UniProt P49761); details: compound 1.0 µM
PAK3 (human) = PAK3 (human) (UniProt O75914); details: compound 1.0 µM
EPHA1 (human) = EPHA1 (human) (UniProt P21709); details: compound 1.0 µM
RPS6KA5 KD1 (human) = RPS6KA5 KD1 (human) (UniProt O75582); details: compound 1.0 µM
Sequence of RPS6KA5 KD1 (human) (O75582 whole entry, looked up): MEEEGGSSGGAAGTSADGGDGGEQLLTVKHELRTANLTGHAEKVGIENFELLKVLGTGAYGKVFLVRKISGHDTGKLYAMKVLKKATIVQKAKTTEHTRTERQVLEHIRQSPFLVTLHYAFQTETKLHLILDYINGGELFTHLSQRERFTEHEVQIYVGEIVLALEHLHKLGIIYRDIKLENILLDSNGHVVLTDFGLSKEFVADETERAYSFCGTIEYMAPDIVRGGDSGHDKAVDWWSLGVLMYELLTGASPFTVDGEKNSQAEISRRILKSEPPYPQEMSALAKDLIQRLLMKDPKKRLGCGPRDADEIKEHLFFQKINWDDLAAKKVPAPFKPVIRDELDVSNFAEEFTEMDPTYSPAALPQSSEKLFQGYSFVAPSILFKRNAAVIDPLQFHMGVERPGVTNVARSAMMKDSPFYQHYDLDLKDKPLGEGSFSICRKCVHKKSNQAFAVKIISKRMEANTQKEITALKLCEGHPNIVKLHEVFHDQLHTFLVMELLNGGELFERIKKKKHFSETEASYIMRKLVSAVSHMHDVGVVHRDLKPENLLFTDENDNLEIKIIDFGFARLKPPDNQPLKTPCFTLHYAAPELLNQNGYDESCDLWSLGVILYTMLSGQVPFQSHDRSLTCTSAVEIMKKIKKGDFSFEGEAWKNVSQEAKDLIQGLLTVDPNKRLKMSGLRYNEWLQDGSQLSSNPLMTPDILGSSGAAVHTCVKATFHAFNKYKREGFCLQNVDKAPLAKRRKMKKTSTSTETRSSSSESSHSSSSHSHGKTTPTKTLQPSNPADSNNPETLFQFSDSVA

GRK4 (human) = GRK4 (human) (UniProt P32298); details: compound 1.0 µM
[5] = test system: PIK3CA (human), P42336 [H1047Y]; details: compound 1.0 µM
MKNK1 (human) = MKNK1 (human) (UniProt Q9BUB5); details: compound 1.0 µM
Sequence of MKNK1 (human) (Q9BUB5 whole entry, looked up): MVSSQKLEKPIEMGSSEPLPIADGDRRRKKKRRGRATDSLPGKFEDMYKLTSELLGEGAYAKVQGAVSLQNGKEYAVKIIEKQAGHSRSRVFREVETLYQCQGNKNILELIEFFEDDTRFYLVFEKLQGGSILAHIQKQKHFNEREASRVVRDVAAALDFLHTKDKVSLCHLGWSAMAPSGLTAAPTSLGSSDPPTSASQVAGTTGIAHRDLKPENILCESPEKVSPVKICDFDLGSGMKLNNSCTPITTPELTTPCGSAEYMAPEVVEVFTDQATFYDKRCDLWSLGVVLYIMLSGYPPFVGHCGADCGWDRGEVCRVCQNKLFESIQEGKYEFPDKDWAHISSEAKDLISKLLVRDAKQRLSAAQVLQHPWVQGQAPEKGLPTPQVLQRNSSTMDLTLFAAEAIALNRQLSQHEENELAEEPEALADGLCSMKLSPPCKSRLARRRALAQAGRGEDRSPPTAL

[6] = test system: BRAF (human), P15056 [V600E]; details: compound 1.0 µM
RPS6KA6 KD1 (human) = RPS6KA6 KD1 (human) (UniProt Q9UK32); details: compound 1.0 µM
NUAK1 (human) = NUAK1 (human) (UniProt O60285); details: compound 1.0 µM
PIK3CD (human) = PIK3CD (human) (UniProt O00329); details: compound 1.0 µM
CDK4 CCND1 (human) = CDK4 CCND1 (human) (UniProt P11802+P24385); details: compound 1.0 µM
Sequence of CDK4 CCND1 (human) (P11802 whole entry, looked up): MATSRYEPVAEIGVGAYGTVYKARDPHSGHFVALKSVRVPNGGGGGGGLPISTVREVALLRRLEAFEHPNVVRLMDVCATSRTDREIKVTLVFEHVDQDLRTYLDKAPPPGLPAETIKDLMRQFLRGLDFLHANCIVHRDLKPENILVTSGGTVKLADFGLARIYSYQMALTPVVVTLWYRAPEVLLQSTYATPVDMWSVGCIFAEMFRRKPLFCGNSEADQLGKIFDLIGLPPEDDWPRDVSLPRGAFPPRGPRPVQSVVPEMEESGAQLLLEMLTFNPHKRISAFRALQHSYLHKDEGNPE
Sequence of CDK4 CCND1 (human) (P24385 whole entry, looked up): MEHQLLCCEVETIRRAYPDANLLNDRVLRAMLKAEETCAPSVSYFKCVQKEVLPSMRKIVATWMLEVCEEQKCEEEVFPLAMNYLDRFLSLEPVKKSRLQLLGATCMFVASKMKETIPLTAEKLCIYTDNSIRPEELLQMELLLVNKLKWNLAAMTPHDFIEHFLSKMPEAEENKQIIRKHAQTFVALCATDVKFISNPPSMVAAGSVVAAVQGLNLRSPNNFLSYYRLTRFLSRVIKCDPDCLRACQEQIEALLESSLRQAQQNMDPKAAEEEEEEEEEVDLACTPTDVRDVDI

MAST1 (human) = MAST1 (human) (UniProt Q9Y2H9); details: compound 1.0 µM
RPS6KA1 KD2 (human) = RPS6KA1 KD2 (human) (UniProt Q15418); details: compound 1.0 µM
SRPK3 (human) = SRPK3 (human) (UniProt Q9UPE1); details: compound 1.0 µM
DCLK2 (human) = DCLK2 (human) (UniProt Q8N568); details: compound 1.0 µM
Sequence of DCLK2 (human) (Q8N568 whole entry, looked up): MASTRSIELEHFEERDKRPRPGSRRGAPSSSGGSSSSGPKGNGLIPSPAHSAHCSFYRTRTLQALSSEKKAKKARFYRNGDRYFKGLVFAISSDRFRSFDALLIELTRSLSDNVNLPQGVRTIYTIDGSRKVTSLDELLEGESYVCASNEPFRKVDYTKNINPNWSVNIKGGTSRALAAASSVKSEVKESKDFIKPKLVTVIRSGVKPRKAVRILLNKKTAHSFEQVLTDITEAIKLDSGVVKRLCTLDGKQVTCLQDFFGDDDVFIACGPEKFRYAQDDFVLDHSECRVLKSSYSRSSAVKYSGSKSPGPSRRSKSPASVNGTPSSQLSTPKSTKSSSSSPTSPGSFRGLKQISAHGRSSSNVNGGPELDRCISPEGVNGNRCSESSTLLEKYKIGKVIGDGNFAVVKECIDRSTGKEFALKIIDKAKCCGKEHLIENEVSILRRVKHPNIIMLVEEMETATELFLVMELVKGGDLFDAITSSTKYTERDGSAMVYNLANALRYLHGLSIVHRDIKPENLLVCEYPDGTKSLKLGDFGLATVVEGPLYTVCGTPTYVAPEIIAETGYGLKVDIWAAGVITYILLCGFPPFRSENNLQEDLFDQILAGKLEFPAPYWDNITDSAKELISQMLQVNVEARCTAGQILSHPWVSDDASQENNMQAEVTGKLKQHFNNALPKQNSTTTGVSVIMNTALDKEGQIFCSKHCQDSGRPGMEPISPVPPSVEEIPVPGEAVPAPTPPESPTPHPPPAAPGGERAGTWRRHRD

PRKCI (human) = PRKCI (human) (UniProt P41743); details: compound 1.0 µM
MYLK3 (human) = MYLK3 (human) (UniProt Q32MK0); details: compound 1.0 µM
FER (human) = FER (human) (UniProt P16591); details: compound 1.0 µM
CDK7 (human) = CDK7 (human) (UniProt P50613); details: compound 1.0 µM
Sequence of CDK7 (human) (P50613 whole entry, looked up): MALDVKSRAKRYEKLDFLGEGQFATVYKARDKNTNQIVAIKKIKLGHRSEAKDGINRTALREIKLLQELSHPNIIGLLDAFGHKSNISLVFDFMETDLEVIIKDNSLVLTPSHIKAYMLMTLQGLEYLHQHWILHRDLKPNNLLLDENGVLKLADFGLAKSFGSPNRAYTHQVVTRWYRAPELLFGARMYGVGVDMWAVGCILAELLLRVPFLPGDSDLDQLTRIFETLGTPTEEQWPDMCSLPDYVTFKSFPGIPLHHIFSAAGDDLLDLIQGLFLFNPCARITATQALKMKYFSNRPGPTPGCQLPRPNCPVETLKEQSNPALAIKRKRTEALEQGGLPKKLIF

TIE1 (human) = TIE1 (human) (UniProt P35590); details: compound 1.0 µM
MST1R (human) = MST1R (human) (UniProt Q04912); details: compound 1.0 µM
PHKG1 (human) = PHKG1 (human) (UniProt Q16816); details: compound 1.0 µM
Sequence of PHKG1 (human) (Q16816 whole entry, looked up): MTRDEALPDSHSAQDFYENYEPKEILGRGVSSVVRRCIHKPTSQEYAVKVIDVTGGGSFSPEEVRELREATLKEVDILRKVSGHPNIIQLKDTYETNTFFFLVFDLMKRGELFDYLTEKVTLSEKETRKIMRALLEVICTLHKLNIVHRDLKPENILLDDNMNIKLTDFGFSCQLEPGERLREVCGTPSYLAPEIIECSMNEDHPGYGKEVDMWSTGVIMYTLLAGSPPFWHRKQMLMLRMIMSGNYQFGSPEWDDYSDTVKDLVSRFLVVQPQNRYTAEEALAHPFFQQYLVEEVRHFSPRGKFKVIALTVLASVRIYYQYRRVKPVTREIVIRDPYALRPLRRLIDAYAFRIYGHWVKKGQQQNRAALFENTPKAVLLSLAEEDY

SRPK1 (human) = SRPK1 (human) (UniProt Q96SB4); details: compound 1.0 µM
[7] = test system: EGFR (human), P00533 [P753S; 747-752 del]; details: compound 1.0 µM
BMP2K (human) = BMP2K (human) (UniProt Q9NSY1)
Sequence of BMP2K (human) (Q9NSY1 whole entry, looked up): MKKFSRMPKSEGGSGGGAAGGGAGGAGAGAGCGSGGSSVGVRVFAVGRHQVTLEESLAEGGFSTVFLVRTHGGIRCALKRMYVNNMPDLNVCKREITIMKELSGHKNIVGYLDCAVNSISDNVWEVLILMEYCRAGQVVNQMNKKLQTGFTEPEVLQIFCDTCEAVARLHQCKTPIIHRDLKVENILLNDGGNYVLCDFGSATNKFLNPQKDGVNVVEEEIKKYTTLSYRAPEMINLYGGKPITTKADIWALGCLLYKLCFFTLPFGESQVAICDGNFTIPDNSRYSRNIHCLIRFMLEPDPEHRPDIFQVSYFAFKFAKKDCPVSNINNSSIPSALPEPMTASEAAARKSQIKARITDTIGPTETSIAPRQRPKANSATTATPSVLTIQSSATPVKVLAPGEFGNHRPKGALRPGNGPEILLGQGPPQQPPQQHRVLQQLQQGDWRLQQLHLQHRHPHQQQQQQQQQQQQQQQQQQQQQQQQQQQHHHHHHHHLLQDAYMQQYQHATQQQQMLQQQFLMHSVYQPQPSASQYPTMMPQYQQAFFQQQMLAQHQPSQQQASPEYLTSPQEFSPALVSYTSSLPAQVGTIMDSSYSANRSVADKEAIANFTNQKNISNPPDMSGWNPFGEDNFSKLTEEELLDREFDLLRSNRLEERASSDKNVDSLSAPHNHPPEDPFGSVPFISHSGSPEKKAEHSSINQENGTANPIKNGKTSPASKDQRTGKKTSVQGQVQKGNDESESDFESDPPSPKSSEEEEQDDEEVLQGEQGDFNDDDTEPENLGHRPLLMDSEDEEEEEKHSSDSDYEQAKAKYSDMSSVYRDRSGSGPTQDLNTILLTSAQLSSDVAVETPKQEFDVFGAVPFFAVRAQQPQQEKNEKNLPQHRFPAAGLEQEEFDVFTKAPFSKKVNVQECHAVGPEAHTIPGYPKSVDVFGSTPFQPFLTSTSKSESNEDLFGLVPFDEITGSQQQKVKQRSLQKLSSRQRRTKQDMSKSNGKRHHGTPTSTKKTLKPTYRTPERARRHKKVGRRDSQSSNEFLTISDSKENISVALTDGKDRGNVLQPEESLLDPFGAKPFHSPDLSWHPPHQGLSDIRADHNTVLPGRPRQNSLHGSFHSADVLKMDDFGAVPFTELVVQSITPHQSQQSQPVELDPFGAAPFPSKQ

[8] = test system: KIT (human), P10721 [V559D/T670I]; details: compound 1.0 µM
STK17B (human) = STK17B (human) (UniProt O94768); details: compound 1.0 µM
PRKD2 (human) = PRKD2 (human) (UniProt Q9BZL6); details: compound 1.0 µM

Sequence of STK38 (human) (Q15208 whole entry, looked up): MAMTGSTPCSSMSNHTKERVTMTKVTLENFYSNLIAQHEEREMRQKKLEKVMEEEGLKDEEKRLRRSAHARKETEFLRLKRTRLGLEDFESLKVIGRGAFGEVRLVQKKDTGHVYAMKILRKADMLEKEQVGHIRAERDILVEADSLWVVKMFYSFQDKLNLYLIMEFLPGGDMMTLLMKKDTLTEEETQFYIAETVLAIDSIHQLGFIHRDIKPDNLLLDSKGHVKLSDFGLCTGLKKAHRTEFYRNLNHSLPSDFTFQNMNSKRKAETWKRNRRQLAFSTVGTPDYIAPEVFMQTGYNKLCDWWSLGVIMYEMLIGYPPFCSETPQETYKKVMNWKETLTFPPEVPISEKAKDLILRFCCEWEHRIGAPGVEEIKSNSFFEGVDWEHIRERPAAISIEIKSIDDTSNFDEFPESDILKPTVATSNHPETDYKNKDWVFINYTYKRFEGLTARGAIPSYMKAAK

CN(C)C/C=C/C(=O)Nc1cccc(C(=O)Nc2ccc(Nc3nccc(-c4cccnc4)n3)cc2)c1
kinase still bound, per cent of control (CDKL1 (human)): 54% | kinase still bound, per cent of control (MAP2K2 (human)): 58% | kinase still bound, per cent of control [1]: 100% | kinase still bound, per cent of control (STK38 (human)): 100% | kinase still bound, per cent of control (LCK (human)): 100% | kinase still bound, per cent of control (MAP3K1 (human)): 85% | kinase still bound, per cent of control [2]: 29% | kinase still bound, per cent of control (ZAP70 (human)): 100% | kinase still bound, per cent of control [3]: 42% | kinase still bound, per cent of control (CDK11B (human)): 71% | kinase still bound, per cent of control [4]: 5.8% | kinase still bound, per cent of control (NUAK2 (human)): 31% | kinase still bound, per cent of control (MARK4 (human)): 40% | kinase still bound, per cent of control (CLK3 (human)): 84% | kinase still bound, per cent of control (PAK3 (human)): 100% | kinase still bound, per cent of control (EPHA1 (human)): 95% | kinase still bound, per cent of control (RPS6KA5 KD1 (human)): 100% | kinase still bound, per cent of control (GRK4 (human)): 32% | kinase still bound, per cent of control [5]: 100% | kinase still bound, per cent of control (MKNK1 (human)): 100% | kinase still bound, per cent of control [6]: 60% | kinase still bound, per cent of control (RPS6KA6 KD1 (human)): 88% | kinase still bound, per cent of control (NUAK1 (human)): 37% | kinase still bound, per cent of control (PIK3CD (human)): 100% | kinase still bound, per cent of control (CDK4 CCND1 (human)): 61% | kinase still bound, per cent of control (MAST1 (human)): 77% | kinase still bound, per cent of control (RPS6KA1 KD2 (human)): 82% | kinase still bound, per cent of control (SRPK3 (human)): 28% | kinase still bound, per cent of control (DCLK2 (human)): 100% | kinase still bound, per cent of control (PRKCI (human)): 100% | kinase still bound, per cent of control (MYLK3 (human)): 85% | kinase still bound, per cent of control (FER (human)): 100% | kinase still bound, per cent of control (CDK7 (human)): 20% | kinase still bound, per cent of control (TIE1 (human)): 100% | kinase still bound, per cent of control (MST1R (human)): 100% | kinase still bound, per cent of control (PHKG1 (human)): 91% | kinase still bound, per cent of control (SRPK1 (human)): 50% | kinase still bound, per cent of control [7]: 99% | Kd (BMP2K (human)): 190 nM | kinase still bound, per cent of control (BMP2K (human); compound 1.0 µM): 3.8% | kinase still bound, per cent of control [8]: 9.8% | kinase still bound, per cent of control (STK17B (human)): 24% | kinase still bound, per cent of control (PRKD2 (human)): 100%
